Assay results as given in patent US10316017B2, “COT modulators and methods of use thereof” (Gilead Sciences, Inc., priority 2015, dated 2019).
Where two headings read alike, the source gives them in different places.

What was measured:
[1] = molecular target: T1, human Cot catalytic domain (30-397 amino acids) (Homo sapiens, UniProt P41279); assay: High Throughput Cot Biochemical Assay (KinEASE TR-FRET); conditions: Cot biochemical HTRF (KinEASE TR-FRET) assay; read-out: IC50 HTRF
T1 construct: Purified recombinant human Cot catalytic domain (30-397 amino acids) was purchased from Cama Biosciences; purchased Cama Biosciences (so in the source)
T1 sequence (P41279 30-397): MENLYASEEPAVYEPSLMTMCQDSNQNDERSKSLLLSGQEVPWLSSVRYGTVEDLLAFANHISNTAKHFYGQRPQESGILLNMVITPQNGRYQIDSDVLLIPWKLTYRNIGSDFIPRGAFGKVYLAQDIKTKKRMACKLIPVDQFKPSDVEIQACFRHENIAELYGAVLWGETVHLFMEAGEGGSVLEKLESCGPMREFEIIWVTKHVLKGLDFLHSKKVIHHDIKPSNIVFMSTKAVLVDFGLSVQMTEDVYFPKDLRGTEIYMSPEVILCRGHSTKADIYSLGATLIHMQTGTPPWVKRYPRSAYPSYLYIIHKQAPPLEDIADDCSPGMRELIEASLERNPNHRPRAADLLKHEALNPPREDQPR
In short: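 TR-FRET (KinEASE) read-out: Eu-labelled phospho-specific antibody binds XL665-tagged STK3 peptide (1 μM) phosphorylated by 5 nM human Cot kinase domain (residues 30-397). Reaction at 400 μM ATP, pH 7.0 MOPS buffer with 10 mM MgOAc, 1 mM DTT and 0.1% DMSO.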

[2] = tested on: TNFα production in LPS-stimulated human monocytes; assay: Cot Monocyte TNFα Cell Based Assay; conditions: Homo sapiens, Monocyte, read-out: EC50 TNF
In short: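 TNFα release quantified by two-antibody TR-FRET, normalised to unstimulated (0%) and LPS-stimulated (100%) wells. Cells got a 1 h compound exposure at 37° C in 0.5% DMSO before 4 h challenge with 50 pg/ml LPS, at 5,000 cells/well.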

[3] = TNFα in LPS-stimulated human monocytes

| Compound | IC50 [1] [nM] | EC50 [2, 3] [nM] | EC50 [2] [nM] |
| --- | --- | --- | --- |
| C[C@H](Nc1c(C#N)cnc2c(Cl)cc(N[C@@H](c3ccccc3)c3cn(C4CCN(C(C)(C)C)CC4)nn3)cc12)C(C)(C)C [Example 486, 6-(((S)-(1-(1-(tert-butyl)piperidin-4-yl)-1H-1,2,3-triazol-4-yl)(phenyl)methyl)amino)-8-chloro-4-(((S)-3,3-dimethylbutan-2-yl)amino)quinoline-3-carbonitrile] | 24 | 637 | – |
| CC(C)(C)N1CCC(n2cc([C@@H](Nc3cc(Cl)c4ncc(C#N)c(N[C@@H]5CCCc6ccccc65)c4c3)c3ccccc3)nn2)CC1 [Example 487, 6-(((S)-(1-(1-(tert-butyl)piperidin-4-yl)-1H-1,2,3-triazol-4-yl)(phenyl)methyl)amino)-8-chloro-4-(((R)-1,2,3,4-tetrahydronaphthalen-1-yl)amino)quinoline-3-carbonitrile] | 2250 | 6780 | – |
| CC(C)(C)N1CCC(n2cc([C@@H](Nc3cc(Cl)c4ncc(C#N)c(N[C@H]5CCCc6ccccc65)c4c3)c3ccccc3)nn2)CC1 [Example 488, 6-(((S)-(1-(1-(tert-butyl)piperidin-4-yl)-1H-1,2,3-triazol-4-yl)(phenyl)methyl)amino)-8-chloro-4-(((S)-1,2,3,4-tetrahydronaphthalen-1-yl)amino)quinoline-3-carbonitrile] | 1300 | 9010 | – |
| CC(C)(C)N1CCC(n2cc([C@@H](Nc3cc(Cl)c4ncc(C#N)c(NC[Si](C)(C)C)c4c3)c3ccccc3)nn2)CC1 [Example 489, (S)-6-(((1-(1-(tert-butyl)piperidin-4-yl)-1H-1,2,3-triazol-4-yl)(phenyl)methyl)amino)-8-chloro-4-(((trimethylsilyl)methyl)amino)quinoline-3-carbonitrile] | 10 | – | 184 |
| COc1ccc(Nc2c(C#N)cnc3c(Cl)cc(N[C@@H](c4ccccc4)c4c[nH]nn4)cc23)cn1 [Example 490, (S)-8-chloro-4-((6-methoxypyridin-3-yl)amino)-6-((phenyl (1H-1,2,3-triazol-4-yl)methyl)amino) quinoline-3-carbonitrile] | 172 | 3190 | – |
| COc1ccc(Nc2c(C#N)cnc3c(Cl)cc(N[C@@H](c4ccccc4)c4cn(C5COC5)nn4)cc23)cn1 [Example 491, (S)-8-chloro-4-((6-methoxypyridin-3-yl)amino)-6-(((1-(oxetan-3-yl)-1H-1,2,3-triazol-4-yl)(phenyl)methyl)amino) quinoline-3-carbonitrile] | 123 | 3840 | – |
| COc1ccc(Nc2c(C#N)cnc3c(Cl)cc(N[C@@H](c4ccccc4)c4cn(C5CCN(C(C)(C)C)CC5)nn4)cc23)cn1 [Example 492, (S)-6-(((1-(1-(tert-butyl)piperidin-4-yl)-1H-1,2,3-triazol-4-yl)(phenyl)methyl)amino)-8-chloro-4-((6-methoxypyridin-3-yl)amino)quinoline-3-carbonitrile] | 65 | 966 | – |
| N#Cc1cnc2c(Cl)cc(N[C@@H](c3ccc(F)cc3)c3cn(CCF)nn3)cc2c1Nc1cnc(F)c(F)c1 [Example 493, (S)-8-chloro-4-((5,6-difluoropyridin-3-yl)amino)-6-(((1-(2-fluoroethyl)-1H-1,2,3-triazol-4-yl)(4-fluorophenyl)methyl)amino) quinoline-3-carbonitrile] | 18 | 1220 | – |
| N#Cc1cnc2c(Cl)cc(N[C@@H](c3ccc(Cl)cc3)c3cn(C4COC4)nn3)cc2c1Nc1cnc(F)c(F)c1 [Example 494, (S)-8-chloro-6-(((4-chlorophenyl)(1-(oxetan-3-yl)-1H-1,2,3-triazol-4-yl)methyl)amino)-4-((5,6-difluoropyridin-3-yl)amino)quinoline-3-carbonitrile] | 47 | 585 | – |
| N#Cc1cnc2c(Cl)cc(N[C@@H](c3ccc(Cl)cc3)c3c[nH]nn3)cc2c1Nc1cnc(F)c(F)c1 [Example 495, (S)-8-chloro-6-(((4-chlorophenyl)(1H-1,2,3-triazol-4-yl)methyl)amino)-4-((5,6-difluoropyridin-3-yl)amino) quinoline-3-carbonitrile] | 32 | 641 | – |
| CC(=O)N(C)c1cccc([C@H](Nc2cc(Cl)c3ncc(C#N)c(Nc4cnc(F)c(F)c4)c3c2)c2c[nH]nn2)c1 [Example 496, (S)-N-(3-(((8-chloro-3-cyano-4-((5,6-difluoropyridin-3-yl)amino)quinolin-6-yl)amino)(1H-1,2,3-triazol-4-yl)methyl)phenyl)-N-methylacetamide] | 4 | 1840 | – |
| N#Cc1cnc2c(Cl)cc(N[C@@H](c3ccccc3)c3cn([C@@H]4CCN(C5COC5)C[C@H]4O)nn3)cc2c1Nc1ccc(F)c(Cl)c1 [Example 497, 8-chloro-4-((3-chloro-4-fluorophenyl)amino)-6-(((S)-(1-((3R,4R)-3-hydroxy-1-(oxetan-3-yl)piperidin-4-yl)-1H-1,2,3-triazol-yl)(phenyl)methyl)amino)quinoline-3-carbonitrile] | 26 | 985 | – |
| N#Cc1cnc2c(Cl)cc(N[C@@H](c3cccc(-c4ncco4)c3)c3c[nH]nn3)cc2c1Nc1cnc(F)c(F)c1 [Example 498, (S)-8-chloro-4-((5,6-difluoropyridin-3-yl)amino)-6-(((3-(oxazol-2-yl)phenyl)(1H-1,2,3-triazol-4-yl)methyl)amino) quinoline-3-carbonitrile] | 8 | 520 | – |
| N#Cc1cnc2c(Cl)cc(N[C@@H](c3cccc(-c4ncco4)c3)c3cn(C4COC4)nn3)cc2c1Nc1cnc(F)c(F)c1 [Example 499, (S)-8-chloro-4-((5,6-difluoropyridin-3-yl)amino)-6-(((3-(oxazol-2-yl)phenyl) (1-(oxetan-3-yl)-1H-1,2,3-triazol-4-yl)methyl)amino)quinoline-3-carbonitrile] | 6 | 985 | – |
| N#Cc1cnc2c(Cl)cc(N[C@H](c3cn(C4COC4)nn3)c3c(F)cc(F)cc3F)cc2c1Nc1cnc(F)c(F)c1 [Example 500, (S)-8-chloro-4-((5,6-difluoropyridin-3-yl)amino)-6-(((1-(oxetan-3-yl)-1H-1,2,3-triazol-4-yl)(2,4,6-trifluorophenyl)methyl)amino)quinoline-3-carbonitrile] | 92 | 2160 | – |
| N#Cc1cnc2c(Cl)cc(N[C@H](c3cn(C4COC4)nn3)c3ccccc3C(F)(F)F)cc2c1Nc1cnc(F)c(F)c1 [Example 501, (S)-8-chloro-4-((5,6-difluoropyridin-3-yl)amino)-6-(((1-(oxetan-3-yl)-1H-1,2,3-triazol-4-yl)(2-(trifluoromethyl)phenyl)methyl)amino)quinoline-3-carbonitrile] | 94 | 2140 | – |
| N#Cc1cnc2c(Cl)cc(N[C@H](c3c[nH]nn3)c3ccccc3C(F)(F)F)cc2c1Nc1cnc(F)c(F)c1 [Example 502, (S)-6-(((1H-1,2,3-triazol-4-yl)(2-(trifluoromethyl)phenyl)methyl)amino)-8-chloro-4-((5,6-difluoropyridin-3-yl)amino)quinoline-3-carbonitrile] | 160 | 1950 | – |
| N#Cc1cnc2c(Cl)cc(N[C@H](c3c[nH]nn3)c3c(F)cc(F)cc3F)cc2c1Nc1cnc(F)c(F)c1 [Example 503, (S)-6-(((1H-1,2,3-triazol-4-yl)(2,4,6-trifluorophenyl)methyl)amino)-8-chloro-4-((5,6-difluoropyridin-3-yl)amino)quinoline-3-carbonitrile] | 98 | 1690 | – |
| CC(C)(C)N1CCC(n2cc([C@@H](Nc3cc(Cl)c4ncc(C#N)c(N)c4c3)c3ccccc3)nn2)CC1 [Example 504, (S)-4-amino-6-(((1-(1-(tert-butyl)piperidin-4-yl)-1H-1,2,3-triazol-4-yl)(phenyl)methyl)amino)-8-chloroquinoline-3-carbonitrile] | 1780 | 8510 | – |
| CC(C)(C)N1CCC(n2cc([C@@H](Nc3cc(Cl)c4ncc(C#N)c(Nc5ccc(F)c(C(F)(F)F)c5)c4c3)c3ccccc3)nn2)CC1 [Example 505, (S)-6-(((1-(1-(tert-butyl)piperidin-4-yl)-1H-1,2,3-triazol-4-yl)(phenyl)methyl)amino)-8-chloro-4-((4-fluoro-3-(trifluoromethyl)phenyl)amino)quinoline-3-carbonitrile] | 240 | 2620 | – |
| CC(C)(C)N1CCC(n2cc([C@@H](Nc3cc(Cl)c4ncc(C#N)c(N[C@@H]5CCOc6ccccc65)c4c3)c3ccccc3)nn2)CC1 [Example 506, 6-(((S)-(1-(1-(tert-butyl)piperidin-4-yl)-1H-1,2,3-triazol-4-yl)(phenyl)methyl)amino)-8-chloro-4-(((R)-chroman-4-yl)amino)quinoline-3-carbonitrile] | 1690 | 5290 | – |
| CC(C)(C)N1CCC(n2cc([C@@H](Nc3cc(Cl)c4ncc(C#N)c(N[C@H]5CCOc6ccccc65)c4c3)c3ccccc3)nn2)CC1 [Example 507, 6-(((S)-(1-(1-(tert-butyl)piperidin-4-yl)-1H-1,2,3-triazol-4-yl)(phenyl)methyl)amino)-8-chloro-4-(((S)-chroman-4-yl)amino)quinoline-3-carbonitrile] | 741 | 8510 | – |
| CCC(Nc1c(C#N)cnc2c(Cl)cc(N[C@@H](c3ccccc3)c3cn(C4CCN(C(C)(C)C)CC4)nn3)cc12)C1CCOCC1 (stereo partly drawn) [Example 508, 6-(((S)-(1-(1-(tert-butyl)piperidin-4-yl)-1H-1,2,3-triazol-4-yl)(phenyl)methyl)amino)-8-chloro-4-((1-(tetrahydro-2H-pyran-4-yl)propyl)amino)quinoline-3-carbonitrile] | 5350 | > 10000 | – |
